Publication PMC6513986, “Molecular basis for heat desensitization of TRPV1 ion channels” (Nature Communications, 2019)

Legend:
[1] = Emission peak of free ANAP at different temperatures; format: physicochemical; conditions: n=3
Description: ANAP fluorescence was excited by the Ar laser with a 375/28 excitation filter, T400lp dichroic mirror, and 435LP emission filter on an inverted fluorescence microscope (Nikon TE2000-U) using a ×40 oil-immersion objective (numerical aperture (NA) 1.3). Emission spectrum of ANAP was imaged with an Acton SpectraPro 2150i spectrograph in conjunction with an Evolve 512 EMCCD camera. The emission peak value was found by fitting the spectrum with a skewed Gauss distribution.

pV1_241 (ANAP) = pV1_241 (ANAP) (Ornithorhynchus anatinus, UniProt F7A7B4); test: Agonist activation of ANAP-incorporated channel, patch clamp; format: cell-based, platypus
platypus TRPV1 (pV1) = platypus TRPV1 (pV1) (Ornithorhynchus anatinus, UniProt F7A7B4); test: Agonist activation, patch clamp, HEK293T; format: cell-based; conditions: whole-cell, 3 mM
mV1_654 (ANAP) = mV1_654 (ANAP) (Mus musculus, UniProt Q704Y3, Y654X); test: Agonist activation of ANAP-incorporated channel, patch clamp; format: cell-based
mV1_685 (ANAP) = mV1_685 (ANAP) (Mus musculus, UniProt Q704Y3, E685X); test: as above; format: cell-based
pV1_643 (ANAP) = pV1_643 (ANAP) (Ornithorhynchus anatinus, UniProt F7A7B4, S634X)
mV1_579 (ANAP) = mV1_579 (ANAP) (Mus musculus, UniProt Q704Y3, C579X); test: Agonist activation of ANAP-incorporated channel, patch clamp; format: cell-based
mV1_630 (ANAP) = mV1_630 (ANAP) (Mus musculus, UniProt Q704Y3, S630X); test: as above; format: cell-based
mV1_651 (ANAP) = mV1_651 (ANAP) (Mus musculus, UniProt Q704Y3, T651X); test: as above; format: cell-based
mV1_648 (ANAP) = mV1_648 (ANAP) (Mus musculus, UniProt Q704Y3, L648X); test: as above; format: cell-based
mV1_241 (ANAP) = mV1_241 (ANAP) (Mus musculus, UniProt Q704Y3, K241X); test: as above; format: cell-based

| SMILES | change of emission spectrum during heating [1] | 2APB activation (pV1_241 (ANAP)) | activation of pV1 by 2-APB (platypus TRPV1 (pV1); listed as 2-APB) | activation of pV1 by 2-APB (platypus TRPV1 (pV1); listed as 2-aminoethoxydiphenyl borate) | 2APB activation (mV1_654 (ANAP)) | 2APB activation (mV1_685 (ANAP)) | 2APB activation (pV1_643 (ANAP)) | 2APB activation (mV1_579 (ANAP)) | 2APB activation (mV1_630 (ANAP)) | 2APB activation (mV1_651 (ANAP)) | 2APB activation (mV1_648 (ANAP)) | 2APB activation (mV1_241 (ANAP)) |
| --- | --- | --- | --- | --- | --- | --- | --- | --- | --- | --- | --- | --- |
| CC(=O)c1ccc2cc(NCC(N)C(=O)O)ccc2c1 (stereo not drawn) [free ANAP, 3-(6-acetylnaphthalen-2-ylamino)-2-aminopropanoic acid] | no change |  |  |  |  |  |  |  |  |  |  |  |
| NCCOB(c1ccccc1)c1ccccc1 [2APB, 2-aminoethoxydiphenyl borate] |  | Yes | currents elicited | directly activated | Yes | Yes | Yes | Yes | Yes | Yes | Yes | Yes |
